From EP2832223A1, “HERBICIDAL COMPOSITION” (Ishihara Sangyo Kaisha, Ltd., priority 2012, dated 2013)

Columns and labels:
Assay type in all cases: in vivo
[1] = tested on: Japanese millet (Echinochloa utilis Ohwi et Yabuno); assay: Test Example 5: pot test, soil treatment, visual growth inhibition; details: soil treatment, 28th day after treatment, read-out: Growth inhibition rate (%) of Japanese millet Measured value
Procedure: (§1) Upland field soil was put into a 1/300,000 ha pot, and seeds of Japanese millet (Echinochloa utilis Ohwi et Yabuno) were sown. On the next day, predetermined amounts of ONEHOPE NYUZAI (tradename), Click (tradename) and SC formulation containing topramezone as an active ingredient (tradename: Clio, manufactured by BASF) were diluted with water (in an amount corresponding to 1,000 L/ha) and applied for soil treatment by a small sprayer.
(§2) On the 28th day after treatment, the state of growth of the Japanese millet was visually observed to determine the growth inhibition rate (%). The growth inhibition rate (%) (measured value) and the growth inhibition rate (%) calculated in the same manner as in the above Test Example 1 are shown in Table 5.

[2] = tested on: velvetleaf (Abutilon theophrasti Medic.); assay: Test Example 14: pot test, soil and foliar treatment, visual growth inhibition; details: soil treatment and foliar treatment, 31st day after treatment, read-out: Growth inhibition rate (%) of velvetleaf Measured value
Text: Upland field soil was put into a 1/1,000,000 ha pot, and seeds of velvetleaf (Abutilon theophrasti Medic.) were sown. When the velvetleaf reached 4.0 to 4.3-leaf stage, seeds of velvetleaf were further sown in the same pot assuming conditions such that weeds would later grow. On the next day, predetermined amounts of ONEHOPE NYUZAI (tradename), Click (tradename), Callisto (tradename), Mikado (tradename), a wettable powder containing bicyclopyrone as an active ingredient and Clio (tradename) were diluted with water in an amount corresponding to 300 L/ha and applied for soil treatment and for foliar treatment by a small sprayer.
as §2, with “31 st” for “28th”, “velvetleaf” for “Japanese millet”, “14.” for “5.”

[3] = tested on: rostrate sesbania (Sesbania rostrata Bremek. & Oberm.); assay: Test Example 8: pot test, soil treatment, visual growth inhibition; details: soil treatment, 28th day after treatment, read-out: Growth inhibition rate (%) of rostrate sesbania Measured value
Procedure: Upland field soil was put into a 1/300,000 ha pot, and seeds of rostrate sesbania (Sesbania rostrata Bremek. & Oberm.) were sown. On the next day, predetermined amounts of ONEHOPE NYUZAI (tradename), Click (tradename), Spectrum (tradename) and Clio (tradename) were diluted with water (in an amount corresponding to 1,000 L/ha) and applied for soil treatment by a small sprayer.
as §2, with “rostrate sesbania” for “Japanese millet”, “8.” for “5.”

[4] = tested on: common cocklebur (Xanthium strumarium L.); assay: Test Example 12: pot test, foliar treatment, visual growth inhibition; details: foliar treatment at 4.2 to 4.3-leaf stage, 28th day after treatment, read-out: Growth inhibition rate (%) of common cocklebur Measured value
Procedure: Upland field soil was put into a 1/1,000,000 ha pot, and seeds of common cocklebur (Xanthium strumarium L.) were sown. When the common cocklebur reached 4.2 to 4.3-leaf stage, predetermined amounts of ONEHOPE NYUZAI (tradename), Click (tradename) and water dispersible granules containing flufenacet as an active ingredient (tradename: Cadou, manufactured by Bayer CropScience) were diluted with water (in an amount corresponding to 1,000 L/ha) and applied for foliar treatment by a small sprayer.
as §2, with “common cocklebur” for “Japanese millet”, “12.” for “5.”

[5] = tested on: green foxtail (Setaria viridis (L.) P.Beauv.); assay: Test Example 3: pot test, soil treatment, visual growth inhibition; details: soil treatment, 27th day after treatment, read-out: Growth inhibition rate (%) of green foxtail Measured value
Procedure: as §1, with “1/1,000,000” for “1/300,000”, “green foxtail (Setaria viridis (L.) P.Beauv.)” for “Japanese millet (Echinochloa utilis Ohwi et Yabuno)”, “sulcotrione” for “topramezone”, “Mikado,” for “Clio,”, “Bayer CropScience)” for “BASF)”
as §2, with “27th” for “28th”, “green foxtail” for “Japanese millet”, “3.” for “5.”

[6] = tested on: common cocklebur (Xanthium strumarium L.); assay: Test Example 1: pot test, foliar treatment, visual growth inhibition; details: foliar treatment at 4.3 to 4.8-leaf stage, 22nd day after treatment, read-out: Growth inhibition rate (%) of common cocklebur Measured value
Text: In the present invention, a synergistic effect means a higher herbicidal activity of three active ingredients combined, than the simple sum of the respective herbicidal activities of the three active ingredients (the expected activity). The activity expected by the combination of three active ingredients can be calculated as follows (Colby S.R., "Weed", vol. 15, p. 20-22, 1967). […] Upland field soil was put into a 1/300,000 ha pot, and seeds of common cocklebur (Xanthium strumarium L.) were sown. […] Click, manufactured by BASF) and EC formulation containing dimethenamid-P as an active ingredient (tradename: Spectrum, manufactured by BASF) were diluted with water (in an amount corresponding to 1,000 L/ha) and applied for foliar treatment by a small sprayer. On the 22nd day after treatment, the state of growth of the common cocklebur was visually observed to determine the growth inhibition rate (%) in accordance with the following evalution standard. The growth inhibition rate (%) (measured value) and the growth inhibition rate (%) (calculated value) calculated by the Colby's formula are shown in Table 1.

[7] = tested on: sunn-hemp (Crotalaria juncea L.); assay: Test Example 7: pot test, soil treatment, visual growth inhibition; details: soil treatment, 28th day after treatment, read-out: Growth inhibition rate (%) of sunn-hemp Measured value
Procedure: Upland field soil was put into a 1/300,000 ha pot, and seeds of sunn-hemp (Crotalaria juncea L.) were sown. On the next day, predetermined amounts of ONEHOPE NYUZAI (tradename), Click (tradename), Mikado (tradename) and a wettable powder containing bicyclopyrone prepared in accordance with a conventional formulation method were diluted with water (in an amount corresponding to 1,000 L/ha) and applied for soil treatment by a small sprayer.
as §2, with “sunn-hemp” for “Japanese millet”, “7.” for “5.”

| SMILES | inhibition at 30 g/ha ([1]; 30 g/ha) | inhibition at 20 g/ha ([2]; 20 g/ha) | inhibition at 60 g/ha ([2]; 60 g/ha) | inhibition at 10 g/ha ([3]; 10 g/ha) | inhibition at 15 g/ha ([4]; 15 g/ha) | inhibition at 30 g/ha ([5]; 30 g/ha) | inhibition at 30 g/ha ([6]; 30 g/ha) | inhibition at 100 g/ha ([7]; 100 g/ha) | inhibition at 500 g/ha ([1]; 500 g/ha) | inhibition at 400 g/ha ([2]; 400 g/ha) | inhibition at 1200 g/ha ([2]; 1200 g/ha) | inhibition at 2000 g/ha ([3]; 2000 g/ha) | inhibition at 250 g/ha ([4]; 250 g/ha) | inhibition at 500 g/ha ([5]; 500 g/ha) | inhibition at 500 g/ha ([6]; 500 g/ha) | inhibition at 200 g/ha ([7]; 200 g/ha) |
| --- | --- | --- | --- | --- | --- | --- | --- | --- | --- | --- | --- | --- | --- | --- | --- | --- |
| COc1cc(OC)nc(NC(=O)NS(=O)(=O)c2ncccc2C(=O)N(C)C)n1 [Nicosulfuron, 2-(4,6-dimethoxypyrimidin-2-ylcarbamoylsulfamoyl)-N,N-dimethylnicotinamide] | 40% | 3% | 11% | 0% | 80% | 60% | 0% | 40% | – | – | – | – | – | – | – | – |
| CCNc1nc(Cl)nc(NC(C)(C)C)n1 [Terbuthylazine, N^2-tert-butyl-6-chloro-N^4-ethyl-1,3,5-triazine-2,4-diamine] | – | – | – | – | – | – | – | – | 50% | 0% | 0% | 0% | 30% | 18% | 10% | 30% |
